These results are taken from patent publication US5091399A, “Antimicrobial compounds and methods of use” (Rohm and Haas Company, priority 1990, dated 1992).

≈ marks a conversion by molar mass, not a printed value. A value given as a limit tells only on which side of the number the result lay.

Holding throughout (assay): MIC test (biocide), serial dilution in Trypticase Soy Broth
Holding throughout (format): cell-based

One assay deals with Aspergillus niger. To be noted: pH 7.0, starting concentration 500 ppm. The method, then:
(§1) Efficacy tests against eight fungi and four bacteria was carried out. A minimum inhibitory concentration (MIC) value was obtained using Trypticase Soy Broth, pH 7.0, and by preparing serial dilutions with a starting concentration of 500 ppm. A stock solution of the test compound was made in dimethyl sulfoxide (DMSO) or acetone. The MIC's of the compounds of this invention against the test organisms are shown in Table 3. |Test was run in Trypticase Soy Broth, pH 7.0 Starting concentration = 500

For another assay, the system named is Aureobasidium pullulans. To be noted: pH 7.0, starting concentration 500 ppm. The protocol:
as §1

For the next assay, the system named is Chaetomium globosum. To be noted: pH 7.0, starting concentration 500 ppm. The protocol:
as §1

Another assay deals with Cladosporium resinae. The note with it: Amorphotheca resinae, pH 7.0, starting concentration 500 ppm. The protocol: as §1
The next assay relates to Escherichia coli. The note with it: pH 7.0, starting concentration 500 ppm. The protocol: as §1
The next assay has as its system Gleophyllum trabeum. The note with it: pH 7.0, starting concentration 500 ppm. The protocol: as §1
In another assay the test system is Penicillium funiculosum. The note with it: Talaromyces funiculosus, pH 7.0, starting concentration 500 ppm. The method, then: as §1
For the next assay, the system named is Pseudomonas aeruginosa. The note with it: pH 7.0, starting concentration 500 ppm. The protocol:
as §1

The next assay relates to Pseudomonas fluorescens. The note with it: pH 7.0, starting concentration 500 ppm. The protocol:
as §1

The subject of another assay is Rhodotorula rubra. To be noted: pH 7.0, starting concentration 500 ppm. The protocol: as §1
For another assay, the system named is Saccharomyces cerevisiae. The note with it: pH 7.0, starting concentration 500 ppm. The method, then:
as §1

The next assay has as its system Staphylococcus aureus. To be noted: pH 7.0, starting concentration 500 ppm. The protocol: as §1
A further assay has as its system Chorella. The note with it: pH 7.0, starting concentration 500 ppm. The method, then:
as §1

The term MIC denotes the smallest concentration in the dilution series that meets the test's criterion for growth inhibition. The low end stands for inhibition by little substance, the high end for a need for much substance. As for `Cn1sc(Sc2nc3ccccc3s2)cc1=O` [Compound 1, (2-methyl-4-isothiazolin-3-on-5-yl)-(benzothiazol-2'-yl)sulfide], the MIC was 8 µg/mL (≈ 28.5 µM) with Aspergillus niger; 16 µg/mL (≈ 57.1 µM) in the assay with Aureobasidium pullulans; 32 µg/mL (≈ 114 µM) against Chaetomium globosum; 1 µg/mL (≈ 3.57 µM) against Cladosporium resinae; 500 µg/mL (≈ 1780 µM) against Escherichia coli; below 0.1 µg/mL in the assay on Gleophyllum trabeum. Further, the MIC in the assay with Penicillium funiculosum was 8 µg/mL (≈ 28.5 µM); in the assay on Pseudomonas aeruginosa, above 500 µg/mL; against Pseudomonas fluorescens it was 8 µg/mL (≈ 28.5 µM); against Rhodotorula rubra, 16 µg/mL (≈ 57.1 µM); in the assay on Saccharomyces cerevisiae it was 8 µg/mL (≈ 28.5 µM); against Staphylococcus aureus, 4 µg/mL (≈ 14.3 µM).
Regarding `CCCCCCCCn1sc(Sc2nc3ccccc3s2)c(Cl)c1=O` [Compound 2, [4-chloro-2-(n-octyl)-4-isothiazolin-3-on-5-yl]-(benzothiazol-2'-yl)sulfide], the MIC is 63 µg/mL (≈ 153 µM) with Aspergillus niger; 32 µg/mL (≈ 77.5 µM) in the assay on Aureobasidium pullulans; 4 µg/mL (≈ 9.68 µM) against Chorella; above 250 µg/mL against Escherichia coli; above 250 µg/mL in the assay with Pseudomonas aeruginosa; 1 µg/mL (≈ 2.42 µM) with Staphylococcus aureus.
Take `Cc1c(Sc2nc3ccccc3s2)sn(-c2ccc(Cl)cc2)c1=O` [Compound 3, [4-methyl-2-(4-chlorophenyl)-4-isothiazolin-3-on-5-yl]-(benzothiazol-2'-yl)sulfide]: the figures for the MIC against Aspergillus niger, against Pseudomonas aeruginosa and against Pseudomonas fluorescens were 12.5 µg/mL (≈ 32 µM), 12.5 µg/mL (≈ 32 µM) and 0.4 µg/mL (≈ 1.02 µM), respectively.
